Data as given in publication PMC6750108, “Crystal Structure of 4-Hydroxyphenylpyruvate Dioxygenase in Complex with Substrate Reveals a New Starting Point for Herbicide Discovery” (Research, 2019).

What was measured:
human HPPD = biological target: T1, human HPPD (Homo sapiens, UniProt P32754); assay: inhibition kinetics (supplement Method S2); format: biochemical
T1 construct: gene HPD

AtHPPD = biological target: T2, AtHPPD (Arabidopsis thaliana, UniProt P93836); assay: HGD-coupled assay at […] nm, progress curves; format: biochemical
T2 construct: gene HPD; full-length, N-terminal His tag (pET15b), E. coli BL21 (DE3); Ni-NTA, ion exchange, size exclusion; homodimers in crystal
T2 sequence (P93836 1-445): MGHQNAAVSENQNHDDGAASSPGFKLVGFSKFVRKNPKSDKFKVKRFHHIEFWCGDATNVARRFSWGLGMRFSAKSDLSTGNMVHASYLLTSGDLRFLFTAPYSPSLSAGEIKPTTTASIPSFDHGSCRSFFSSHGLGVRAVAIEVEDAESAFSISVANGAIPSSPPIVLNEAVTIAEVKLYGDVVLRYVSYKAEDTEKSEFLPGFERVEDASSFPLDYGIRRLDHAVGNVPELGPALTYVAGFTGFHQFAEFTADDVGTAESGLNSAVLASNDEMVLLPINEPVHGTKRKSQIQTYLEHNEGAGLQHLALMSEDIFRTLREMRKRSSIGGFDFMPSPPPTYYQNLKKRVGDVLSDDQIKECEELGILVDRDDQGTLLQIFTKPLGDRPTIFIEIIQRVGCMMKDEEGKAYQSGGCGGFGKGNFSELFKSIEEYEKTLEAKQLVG

T1 sequence (P32754 2-393): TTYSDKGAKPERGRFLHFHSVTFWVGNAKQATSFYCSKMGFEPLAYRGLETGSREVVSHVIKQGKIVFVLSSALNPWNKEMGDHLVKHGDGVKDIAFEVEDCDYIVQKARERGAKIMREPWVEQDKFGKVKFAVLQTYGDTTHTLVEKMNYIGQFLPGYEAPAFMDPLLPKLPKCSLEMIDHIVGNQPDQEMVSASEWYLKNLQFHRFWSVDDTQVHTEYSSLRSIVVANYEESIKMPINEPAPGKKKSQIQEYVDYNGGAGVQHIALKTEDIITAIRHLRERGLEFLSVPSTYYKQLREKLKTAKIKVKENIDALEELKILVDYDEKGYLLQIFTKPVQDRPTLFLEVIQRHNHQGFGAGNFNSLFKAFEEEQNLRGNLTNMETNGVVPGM

`Cc1cccc(C)c1-n1c(=O)c2cc(C(=O)C3C(=O)CCCC3=O)ccc2n(C)c1=O` [Y13161] was tested, and the Ki (human HPPD) was 179 ± 7.7 nM and the Ki (AtHPPD) was 24.2 ± 1.01 nM.
